{"source": "patent US20250275935A1", "about": "“COMPOSITIONS AND METHODS FOR TREATING PATIENTS WITH DEMENTIA DUE TO ALZHEIMER'S DISEASE WITH A COMBINATION OF THC AND MELATONIN” (IGC Pharma IP, LLC, priority 2021, published 2025)", "origin": "cited, not measured here", "key": {"[1]": {"details": "general statement, no test described"}, "mice": {"test_system": "mice", "details": "THC 3 mg/kg bodyweight per day, four weeks"}, "[2]": {"details": "4.5 mg/day THC"}, "[3]": {"test_system": "patient having severe Alzheimer's disease", "details": "4.9-6.7 mg dronabinol with 10 mg donepezil and 50 mg sertraline daily; decreased from 20"}}}
{"compound": "COc1ccc2[nH]cc(CCNC(C)=O)c2c1", "note": "[Melatonin, N-acetyl-5-methoxytryptamine]", "values": [{"measurement": "solubility in water", "setting": "[1]", "result": "typically insoluble in water"}]}
{"compound": "CCCCCc1cc(O)c2c(c1)OC(C)(C)[C@@H]1CCC(C)=C[C@@H]21", "note": "[THC, Tetrahydrocannabinol]", "values": [{"measurement": "cognitive performance (learning and memory)", "setting": "mice; mature (12 months) and old (18 months) mice", "result": "cognitive deficits in learning and memory were erased"}, {"measurement": "cognitive performance", "setting": "mice; young mice (2 month)", "result": "performed worse than the control group of young mice"}, {"measurement": "agitation or reduction from baseline of NPI total score versus placebo", "setting": "[2]", "result": "No differences were shown"}]}
{"compound": "COc1cc(/C=C/C(=O)CC(=O)/C=C/c2ccc(O)c(OC)c2)ccc1O", "note": "[curcumin]", "values": [{"measurement": "solubility in water", "setting": "[1]", "result": "only poorly soluble in water"}]}
{"compound": "CCCCCc1cc(O)c2c(c1)OC(C)(C)[C@@H]1CCC(C)=C[C@@H]21", "note": "[dronabinol]", "values": [{"measurement": "NPI total score", "setting": "[3]", "result": 15}]}
{"compound": "C[C@@H]1O[C@@H](OC[C@H]2O[C@@H](Oc3c(-c4ccc(O)c(O)c4)oc4cc(O)cc(O)c4c3=O)[C@H](O)[C@@H](O)[C@@H]2O)[C@H](O)[C@H](O)[C@H]1O", "note": "[rutin]", "values": [{"measurement": "solubility in water", "setting": "[1]", "result": "only poorly soluble in water"}]}
